According to ChEMBL document CHEMBL1201862, “PubChem BioAssay data set” (2004):
Activity calls are given as the source filed them.

How the values were obtained:
[1] = target: T1, Calpain-2 catalytic subunit (Sus scrofa, UniProt P43367); test: m-calpain protease blockers, concentration series – biochemical, fluorogenic peptide substrate, dose response (AID 1420); format: functional
T1 sequence (P43367 whole entry): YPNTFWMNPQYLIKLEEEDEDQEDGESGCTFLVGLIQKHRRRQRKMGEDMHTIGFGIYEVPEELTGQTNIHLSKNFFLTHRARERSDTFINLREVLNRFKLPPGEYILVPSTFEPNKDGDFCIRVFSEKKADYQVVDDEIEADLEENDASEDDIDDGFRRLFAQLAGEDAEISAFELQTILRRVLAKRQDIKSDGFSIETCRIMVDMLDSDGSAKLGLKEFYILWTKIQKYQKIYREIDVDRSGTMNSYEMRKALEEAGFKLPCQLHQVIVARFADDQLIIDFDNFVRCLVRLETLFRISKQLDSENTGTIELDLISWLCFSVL

[2] = target: Induced myeloid leukemia cell differentiation protein Mcl-1 (Homo sapiens, UniProt Q07820); format: functional
Induced myeloid leukemia cell differentiation protein Mcl-1, sequence (Q07820 whole entry, the tested form may be a part): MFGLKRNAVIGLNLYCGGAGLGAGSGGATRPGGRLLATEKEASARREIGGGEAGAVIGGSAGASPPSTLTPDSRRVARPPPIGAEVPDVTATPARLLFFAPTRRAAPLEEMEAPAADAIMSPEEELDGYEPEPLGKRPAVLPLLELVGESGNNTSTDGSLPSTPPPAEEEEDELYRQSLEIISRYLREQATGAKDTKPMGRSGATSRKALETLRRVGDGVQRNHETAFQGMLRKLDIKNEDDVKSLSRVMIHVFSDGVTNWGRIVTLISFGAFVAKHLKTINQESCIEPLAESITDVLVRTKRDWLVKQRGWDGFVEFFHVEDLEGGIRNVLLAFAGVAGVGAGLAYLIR

[3] = target: T2, Carboxy-terminal domain RNA polymerase II polypeptide A small phosphatase 1 (Homo sapiens, UniProt Q9GZU7); test: CTDSP1 inhibitors, concentration-response, biochemical, absorbance readout, ultra-high-throughput screen actives (AID 540297); format: functional
T2 sequence (Q9GZU7 whole entry): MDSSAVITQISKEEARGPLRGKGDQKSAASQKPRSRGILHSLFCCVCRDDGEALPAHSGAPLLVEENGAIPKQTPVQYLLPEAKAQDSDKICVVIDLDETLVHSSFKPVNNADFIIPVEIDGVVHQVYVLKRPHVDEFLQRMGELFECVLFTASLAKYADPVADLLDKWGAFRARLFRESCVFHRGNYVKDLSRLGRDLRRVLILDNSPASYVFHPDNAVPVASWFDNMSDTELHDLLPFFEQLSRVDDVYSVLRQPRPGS

[4] = target: T3, DNA repair protein RAD52 homolog (Homo sapiens, UniProt P43351); format: functional, biochemical
T3 sequence (P43351 whole entry): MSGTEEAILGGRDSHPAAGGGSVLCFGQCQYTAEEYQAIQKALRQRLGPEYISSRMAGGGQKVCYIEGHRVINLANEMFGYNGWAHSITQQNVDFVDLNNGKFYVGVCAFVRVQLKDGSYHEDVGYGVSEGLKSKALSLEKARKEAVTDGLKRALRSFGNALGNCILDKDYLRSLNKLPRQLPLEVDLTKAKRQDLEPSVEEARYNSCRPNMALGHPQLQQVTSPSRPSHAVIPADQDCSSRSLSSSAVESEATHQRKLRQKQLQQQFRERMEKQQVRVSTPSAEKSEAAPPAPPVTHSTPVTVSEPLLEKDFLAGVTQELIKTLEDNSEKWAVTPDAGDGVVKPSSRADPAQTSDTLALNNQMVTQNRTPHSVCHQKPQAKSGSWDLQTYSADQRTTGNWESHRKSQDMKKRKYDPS

[5] = target: T4, RNA-binding protein pos-1 (Caenorhabditis elegans, UniProt G5EF15); test: disruptors of C. elegans POS-1 RNA interaction – biochemical, fluorescence polarization, dose response (AID 1964);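 also: purified POS-1 fused to maltose binding protein made in E. coli; potency of compounds blocking POS-1 binding to fluorescent RNA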
T4 sequence (G5EF15 whole entry): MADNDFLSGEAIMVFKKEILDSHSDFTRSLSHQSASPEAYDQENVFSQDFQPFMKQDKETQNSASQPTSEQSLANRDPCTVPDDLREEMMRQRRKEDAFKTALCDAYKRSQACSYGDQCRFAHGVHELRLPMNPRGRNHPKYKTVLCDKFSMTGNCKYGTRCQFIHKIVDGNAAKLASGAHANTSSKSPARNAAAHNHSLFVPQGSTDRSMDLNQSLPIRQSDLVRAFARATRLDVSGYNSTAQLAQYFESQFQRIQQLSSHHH

[6] = target: T5, Zinc finger protein mex-5 (Caenorhabditis elegans, UniProt Q9XUB2); test: potency of MEX-5 RNA-binding blockers – biochemical, C. elegans, fluorescence polarization, dose response (AID 1960)
T5 sequence (Q9XUB2 whole entry): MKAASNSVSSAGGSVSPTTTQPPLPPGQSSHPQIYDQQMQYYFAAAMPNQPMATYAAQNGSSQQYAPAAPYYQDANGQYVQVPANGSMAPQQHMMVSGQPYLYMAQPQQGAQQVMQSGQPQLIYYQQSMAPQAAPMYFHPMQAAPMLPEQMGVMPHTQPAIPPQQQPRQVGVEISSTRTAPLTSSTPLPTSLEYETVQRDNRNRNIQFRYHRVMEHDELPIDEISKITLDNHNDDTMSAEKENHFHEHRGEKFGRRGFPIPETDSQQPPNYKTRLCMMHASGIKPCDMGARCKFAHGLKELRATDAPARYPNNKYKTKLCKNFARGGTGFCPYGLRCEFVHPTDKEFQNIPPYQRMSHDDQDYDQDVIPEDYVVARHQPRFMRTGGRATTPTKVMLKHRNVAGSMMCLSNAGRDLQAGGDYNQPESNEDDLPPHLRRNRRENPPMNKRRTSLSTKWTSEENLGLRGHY

cells = format: functional
[7] = THP-1 cell cytotoxicity, dose response, cytotoxicity control for non-replicating M. tuberculosis project (AID 489025); format: functional
Nonstructural protein 1 = Nonstructural protein 1 (Influenza A virus, UniProt Q194T2); format: functional, Influenza A virus (A/California/07/2009(H1N1))
Nonstructural protein 1, sequence (Q194T2 whole entry): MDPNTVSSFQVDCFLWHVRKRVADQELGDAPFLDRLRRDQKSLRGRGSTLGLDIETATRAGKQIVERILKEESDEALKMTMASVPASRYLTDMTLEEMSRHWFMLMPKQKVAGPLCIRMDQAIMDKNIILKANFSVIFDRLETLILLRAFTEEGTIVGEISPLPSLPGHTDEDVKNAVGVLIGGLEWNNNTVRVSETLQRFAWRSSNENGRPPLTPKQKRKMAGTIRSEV

[8] = system: Streptococcus sp. 'group A'; test: Streptococcus pyogenes SK(-)GAS viability under kanamycin – luminescence, BacTiterGlo, confirmation, counter-screen for streptokinase expression inhibitor project, dose response (AID 1900); format: functional, organism-based
Streptococcus = test: GAS UMAA2166 growth inhibition – luminescence, BacTiterGlo, counter-screen for streptokinase expression inhibitor project, dose response (AID 1915); format: functional, organism-based;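 also: potency for reduction of bacterial viability or growth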
Streptokinase A = target: T6, Streptokinase A (Streptococcus pyogenes serotype M1, UniProt P10520); test: viability-normalized secreted streptokinase activity reduction – plasminogen activation absorbance, OD405, dose response (AID 1914); format: functional, Streptococcus pyogenes M1 GAS;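 also: secreted streptokinase activity via plasminogen activation per viability signal from cell pellet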
T6 sequence (P10520 whole entry): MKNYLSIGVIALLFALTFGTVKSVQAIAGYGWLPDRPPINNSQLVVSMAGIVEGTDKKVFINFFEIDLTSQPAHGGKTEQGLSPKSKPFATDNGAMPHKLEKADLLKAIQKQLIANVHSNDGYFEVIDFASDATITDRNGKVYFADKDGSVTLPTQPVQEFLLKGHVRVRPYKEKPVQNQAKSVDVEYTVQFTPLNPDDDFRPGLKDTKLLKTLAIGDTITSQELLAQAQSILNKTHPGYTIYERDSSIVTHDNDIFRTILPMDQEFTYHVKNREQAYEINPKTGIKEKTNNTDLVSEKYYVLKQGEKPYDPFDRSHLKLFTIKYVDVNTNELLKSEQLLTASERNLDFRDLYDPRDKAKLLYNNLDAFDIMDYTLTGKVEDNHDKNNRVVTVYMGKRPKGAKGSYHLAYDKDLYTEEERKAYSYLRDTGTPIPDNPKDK

[9] = growth inhibition of yeast DHODH-expressing 3D7 parasites – SYBR Green, dry powder samples, dose response (AID 1159570); format: functional, cell-based;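 also: parasite growth measured after 72 hours of compound exposure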
H9c2 = test: cells; format: functional, cell-based; settings: Rattus norvegicus, H9c2, Myocardium;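 also: confirmatory concentration-response retest of ultra-high-throughput screening hits for modulation of myocardial damage; cell death induced by hydrogen peroxide oxidative stress; compound pretreatment for 60 min then peroxide exposure for 2 h; potency is for protecting the cells against peroxide damage rather than for killing them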
[10] = growth inhibition of PfATP4-mutant resistant parasites – NITD609-resistant line, SYBR Green, dry powder, dose response (AID 1159571); format: functional, cell-based;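 also: parasites synchronized at ring stage by sorbitol before testing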
[11] = P. falciparum Dd2 growth inhibitors, dose response, SYBR Green, cherry-picked samples (AID 1159567); format: functional, cell-based
[12] = Dd2 malaria parasite growth inhibition potency – SYBR Green, dry powder samples, dose response (AID 1159566); format: functional, cell-based;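 also: potency for growth inhibition with lower SYBR green DNA signal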
[13] = target: T7, Rac GTPase-activating protein 1 (Homo sapiens, UniProt Q9H0H5); test: blockers of MgcRacGAP-driven Rac1 GTP hydrolysis – biochemical, ADP Hunter fluorescence, primary and confirmatory, confirmation (AID 624330); format: functional
T7 sequence (Q9H0H5 whole entry): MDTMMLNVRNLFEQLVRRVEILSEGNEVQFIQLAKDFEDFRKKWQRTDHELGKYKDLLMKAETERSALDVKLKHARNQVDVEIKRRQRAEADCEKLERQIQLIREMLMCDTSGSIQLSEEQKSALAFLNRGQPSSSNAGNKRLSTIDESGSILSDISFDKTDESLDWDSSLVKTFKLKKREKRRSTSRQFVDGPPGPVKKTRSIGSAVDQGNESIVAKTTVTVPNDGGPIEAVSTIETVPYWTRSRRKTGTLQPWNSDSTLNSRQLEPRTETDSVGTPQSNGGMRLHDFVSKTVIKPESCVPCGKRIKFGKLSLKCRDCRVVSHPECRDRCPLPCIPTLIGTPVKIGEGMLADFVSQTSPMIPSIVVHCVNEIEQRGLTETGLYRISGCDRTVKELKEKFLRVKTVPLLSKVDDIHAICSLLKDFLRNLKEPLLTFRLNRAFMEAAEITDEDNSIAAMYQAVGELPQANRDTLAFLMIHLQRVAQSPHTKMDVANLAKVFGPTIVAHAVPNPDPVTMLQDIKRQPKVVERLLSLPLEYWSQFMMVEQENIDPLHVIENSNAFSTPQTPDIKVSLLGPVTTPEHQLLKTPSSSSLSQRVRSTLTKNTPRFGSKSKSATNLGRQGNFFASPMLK

[14] = target: FAD-linked sulfhydryl oxidase ALR (Homo sapiens, UniProt P55789); test: ALR-catalysed DTT oxidation blockers – biochemical, H2O2 detection, luminescence, cherry-pick, dose response (AID 493248)
FAD-linked sulfhydryl oxidase ALR, sequence (P55789 whole entry, the tested form may be a part): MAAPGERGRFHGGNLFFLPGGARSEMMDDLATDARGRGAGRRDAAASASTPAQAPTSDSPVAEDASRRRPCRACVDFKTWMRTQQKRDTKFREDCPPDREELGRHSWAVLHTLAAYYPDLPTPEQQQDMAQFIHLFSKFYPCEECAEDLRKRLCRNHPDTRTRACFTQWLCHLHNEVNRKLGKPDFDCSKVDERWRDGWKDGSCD

[15] = target: T8, Polyadenylate-binding protein 1 (Homo sapiens, UniProt P11940); test: MLLE domain peptide-binding blockers, IC50 – biochemical, fluorescence polarization, FITC-PAM2 peptide, dose response (AID 602259); format: functional; settings: read-out: IC50_Mean
T8 sequence (P11940 whole entry, the tested form may be a part): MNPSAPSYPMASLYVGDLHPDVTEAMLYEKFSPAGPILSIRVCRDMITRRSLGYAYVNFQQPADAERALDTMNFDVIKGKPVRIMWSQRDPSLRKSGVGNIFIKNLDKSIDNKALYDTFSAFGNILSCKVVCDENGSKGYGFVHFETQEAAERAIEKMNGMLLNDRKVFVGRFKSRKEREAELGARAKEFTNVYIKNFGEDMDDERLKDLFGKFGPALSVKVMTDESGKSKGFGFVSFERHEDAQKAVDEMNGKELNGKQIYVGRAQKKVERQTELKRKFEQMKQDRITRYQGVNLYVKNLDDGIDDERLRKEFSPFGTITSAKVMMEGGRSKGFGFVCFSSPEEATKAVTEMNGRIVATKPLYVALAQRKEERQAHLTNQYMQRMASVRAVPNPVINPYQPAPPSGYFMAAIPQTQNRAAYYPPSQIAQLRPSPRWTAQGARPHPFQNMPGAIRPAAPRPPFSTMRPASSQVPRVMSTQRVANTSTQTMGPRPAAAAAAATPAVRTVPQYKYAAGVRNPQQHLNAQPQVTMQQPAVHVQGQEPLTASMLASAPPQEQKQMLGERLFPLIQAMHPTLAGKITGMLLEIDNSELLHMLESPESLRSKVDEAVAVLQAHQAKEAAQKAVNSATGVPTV

[16] = target: T8, Polyadenylate-binding protein 1; test: MLLE binding blockers, Cy5 peptide tracer – biochemical, fluorescence polarization, Cy5-PAM2 peptide, secondary, miRNA deadenylation inhibitor project, dose response (AID 602260); format: functional; settings: read-out: IC50_Mean

SMILES: CC(C)/N=C(\S)NN=C1CCCCCCCCCCC1
- IC50 [1]: 1040 nM (not active)

SMILES: O=C(CSc1nnc(COc2ccccc2Cl)o1)NC(=O)NCc1ccco1
- IC50 [2]: 6900 nM (active)
- IC50 [3]: 5930 nM (active)

SMILES: CCN(CC)CCN(C(=O)c1ccc(N2C(=O)CCC2=O)cc1)c1nc2cc3c(cc2s1)OCCO3
- AC50 [4]: 21900 nM (active)

SMILES: CCn1c(C)nc2cc(N)ccc21
- EC50 [5]: 261000 nM (active)
- EC50 [6]: 4590 nM (active)
- AC50 [4]: 5490 nM (active)

SMILES: N#Cc1ccc(-c2ccc(OCC(=O)Nc3cccnc3)cc2)cc1
- IC50 (cells): 1630 nM (active)
- CC50 [7]: 10800 nM (active)

SMILES: O=C(OCC(=O)N1c2ccccc2Sc2ccccc21)c1ccc[n+]([O-])c1
- IC50 [1]: 1660 nM (not active)

SMILES: O=C1c2cccc3cccc(c23)C(=O)N1CCN1CCN(C(=S)Nc2ccc(Cl)cc2)CC1
- IC50 [1]: 22700 nM (not active)

SMILES: Cc1cccc(Oc2ccc(Cl)cc2N)c1
- IC50 [1]: > 50000 nM (not active)

SMILES: CC1Oc2cc3c(-c4c(O)cc(O)c5c(O)c6c(cc45)OC(C)C(C)C6=O)c(O)cc(O)c3c(O)c2C(=O)C1C (stereo unspecified)
- IC50 (Nonstructural protein 1): 29400 nM (active)
- EC50 [8]: 324 nM (active)
- IC50 [2]: 2150 nM (active)
- EC50 (Streptococcus): 967 nM (active)
- EC50 (Streptokinase A): 1740 nM (active)

SMILES: C[C@@H]1CN([C@H](C)CO)S(=O)(=O)c2ccc(C#Cc3ccccc3F)cc2O[C@H]1CN(C)C(=O)c1ccc2c(c1)OCO2
- AC50 [9]: 1610 nM (active)
- IC50 (H9c2): > 79000 nM (inactive)
- AC50 [10]: 925 nM (active)
- AC50 [11]: 1600 nM (active)
- AC50 [12]: 1180 nM (active)

SMILES: O=[N+]([O-])c1cc(Br)c(O)c(/C=N/Nc2nc3ccccc3s2)c1
- EC50 [8]: 1590 nM (active)
- IC50 [2]: > 54000 nM (active)
- EC50 (Streptococcus): 1690 nM (active)

SMILES: Oc1ccc(/C=N/n2cc(-c3ccccc3)nc2S)cc1
- IC50 [13]: 101000 nM (active)
- IC50 [2]: 16500 nM (active)
- AC50 [14]: 860 nM (active)
- IC50 [15]: > 66000 nM (inactive)
- IC50 [16]: > 66000 nM (inactive)

SMILES: CCN(CC)CCN(C(=O)c1ccc2c(c1)CCCC2)c1nc2c(OC)cccc2s1
- AC50 [4]: 24300 nM (active)

SMILES: CCN(CC)c1ccc(/C=N/N2CCN(Cc3ccccc3)CC2)cc1
- IC50 [13]: 78700 nM (active)
- IC50 [2]: 11500 nM (not active)

SMILES: O=C(Nc1ccccc1)N1CCCCN2[C@H](CO)[C@H](c3ccc(C#Cc4cccnc4)cc3)[C@@H]2C1
- AC50 [9]: 150 nM (active)
- AC50 [10]: 157 nM (active)
- AC50 [11]: 676 nM (active)
- AC50 [12]: 165 nM (active)

SMILES: C[C@H](CO)N1C[C@H](C)[C@@H](CN(C)C(=O)Nc2cccc3ccccc23)Oc2ccc(NC(=O)Cc3cn(C)c4ccccc34)cc2C1=O
- AC50 [9]: 2160 nM (active)
- AC50 [10]: 1560 nM (active)
- AC50 [11]: 2340 nM (active)
- AC50 [12]: 1380 nM (active)

SMILES: C[C@@H]1CN([C@@H](C)CO)C(=O)c2cccc(NC(=O)Nc3ccccc3)c2O[C@@H]1CN(C)C(=O)Nc1ccc(F)cc1
- AC50 [9]: 650 nM (active)
- AC50 [10]: 372 nM (active)
- AC50 [11]: 392 nM (active)
- AC50 [12]: 350 nM (active)

SMILES: COc1cc2c3cc1Oc1c(OC)c(OC)cc4c1[C@H](Cc1ccc(cc1)Oc1cc(ccc1O)C[C@H]3N(C)CC2)N(C)CC4 [AROMOLINE]
- AC50 [4]: 9290 nM (active)
